# Measurements from patent US20260055061A1, “HALOPHTHALIMIDE COMPOUNDS AND METHODS OF USE AGAINST TBI, INFLAMMATORY DISORDER, AUTOIMMUNE DISORDER, NEURODEGENERATIVE DISEASE OR VIRAL INFECTION” (The United States of America, as represented by the …, priority 2022, published 2026).
# Entries after “also recorded” stand apart in the source; their conditions may differ.
# Assays:
# [1] = tested on: LPS-induced nitrite in RAW 264.7 cells; experiment: LPS-induced nitrite production in RAW 264.7 cells (Griess reagent / fluorometric kit); format: cell-based, mouse; details: for Nitrite, % Change versus Control (± s.e.m.): 10 uM; for nitrite level, % of vehicle control: percentage of vehicle control value (control = 100%), mean ± S.E.M., n = 3; for nitrite inhibitory activity (comparison in words): tetrafluoro vs corresponding difluoro or stereoisomer; for nitrite levels (in words): six-compound pomalidomide grouping, RAW cell assay, FIGS. 12-13
# Description: Nitrite ion detection in drug treated […] cell culture media: To measure the levels of nitrite ion NO2—) the Griess Reagent System (Promega, Madison, WI, Cat #G2930) was utilized. The protocol followed was that recommended by the manufacturer. In brief a NO2— ion standard curve was prepared in culture media of the same composition to that used for the cell culture study. The concentration range of the standard curve was from 1.5 µM to 100 µM. Equal volumes (50 μL) of standards and unknown samples were added to clear 96 well plates in duplicate. Then 50 μL of sulfanilamide solution was added to each well and the plate was covered and incubated in the dark for 10 min. After the incubation period 50 μL of N-1-napthylethylenediamine dihydrochloride solution was added to each well and the plate was incubated in dark for a further 10 min. After this incubation, the plate was read at 550 nm on a SPECTRAmax PLUS plate reader and the absorbances were used to generate a NO2— standard curve and the NO2— ion levels of the unknown samples are determined using SoftMax Pro V5, Molecular Devices.
# Most neurons are highly vulnerable to RNS and ROS. Nitric oxide (NO) is one of RNSs, which is very short lived and cannot be readily measured. However, nitrite is a stable end product of nitric oxide metabolism. Therefore, nitrite acts as a surrogate measure of NO. The Griess Reagent System (Promega Corporation, Madison, WI) can be applied to measure nitrite levels in culture media following the manufacturer's protocol, and this system was used in the present study as it is a more sensitive assay compared to quantifying actions on TNF-α by ELISA assay. […] This challenge induces high level of TNF-α protein accompanied by a robust generation of nitrite.
# (§1) Cells were propagated as described by ATCC guidelines.
# TNF-α = experiment: LPS-induced TNF-α production in RAW 264.7 cells (ELISA); format: cell-based, mouse; details: for TNF-a, % Change versus Control (± s.e.m.): 10 uM; for TNF-α % Δ: percentage of vehicle control value (control = 100%), mean ± S.E.M., n = 3
# Description: Enzyme-linked immunosorbent assay for TNF-α protein: Media TNF-α levels were measured by use of the Biolegend ELISA MAX Set Delux ELISA (#430904). The protocol used was that recommended by the manufacturer. In brief, a day prior to performing the assay, a 96 well plate was coated with a capture antibody directed against TNF-α. The following day the assay plate was washed and blocked with the kit blocking agent for 1 h while being mixed on a plate shaker at 200 rpm (all incubations were mixed at 200 rpm unless stated otherwise). A TNF-α protein standard curve was prepared in the assay diluent following the kit instructions and unknown media samples were likewise diluted in the same assay diluent. After blocking, the plate was washed and then both the standards and unknown media samples were added to the plate in duplicate. The standards and unknown samples were incubated for 2 h. After the incubation, the plate was washed and then the biotin labeled detection antibody was added to each well and incubated for a further 1 h. After this incubation, the avidin-HRP conjugate complex was added to each well and incubated for 30 min. The plate was washed and the chromogenic substrate 3,3′,5,5′-tetramethylbenzidine solution was added to each well. At this point the plate was covered and incubated in the dark for 15 min, with no mixing. After 15 min the chromogenic reaction was stopped by the addition of 2 N H2SO4 and the absorbance was read at 450 nm and for background subtractions at 570 nm, on a SPECTRAmax PLUS plate reader. The absorbances were used to generate a TNF-α a protein standard curve and the protein levels in the unknown samples were determined using SoftMax Pro V5, Molecular Devices.
# as §1
# RAW 264.7 cells = experiment: Cell viability of drug treated RAW 264.7 cells (CellTiter 96 AQueous One, MTS); details: for Viability, % Change versus Control (± s.e.m.): 10 uM; for Cell Viability % Δ: percentage of vehicle control value, mean ± S.E.M., n = 3
# [2] = 1 μM, LPS-challenged RAW 264.7 cells
# [3] = 10 μM, LPS-challenged RAW 264.7 cells
# [4] = 30 μM, LPS-challenged RAW 264.7 cells
# [5] = LPS-activated RAW 264.7 cells (Table 9)
compound,measurement,setting,value
"CC(C)Nc1ccc(F)c2c1C(=S)N(C1CCC(=S)NC1=O)C2=O (centres unmarked) [Compound 28, 7-fluoro-4-(isopropylamino)-2-(2-oxo-6-thioxopiperidin-3-yl)-3-thioxoisoindolin-1-one]","Nitrite, % Change versus Control (± s.e.m.)",[1]; LPS-activated RAW 264.7 cells,32.3 ± 1.1%
same,"TNF-a, % Change versus Control (± s.e.m.)",TNF-α; LPS-activated RAW 264.7 cells,74.7 ± 2.3%
same,"Viability, % Change versus Control (± s.e.m.)",RAW 264.7 cells; LPS-activated RAW 264.7 cells,74.1 ± 4.2%
"C[C@@H]1[C@@H](N2C(=O)c3c(F)c(F)c(F)c(F)c3C2=O)C[C@H]2C[C@@H]1C2(C)C [Compound 12, 4,5,6,7-Tetrafluoro-2-((1S,2S,3S,5R)-2,6,6-trimethylbicyclo[3.1.1]heptan-3-yl) isoindoline-1,3-d ione]","nitrite level, % of vehicle control",[1]; [2],24 ± 3%
same,nitrite inhibitory activity (comparison in words),[1]; 1 μM,more potent nitrite inhibitory activity
same,TNF-α % Δ,TNF-α; [2],56 ± 5%
same,Cell Viability % Δ,"RAW 264.7 cells; 1 μM, RAW 264.7 cells",63 ± 4%
"O=C1NC(=S)CCC1N1C(=O)c2c(F)ccc([N+](=O)[O-])c2C1=O (centres unmarked) [Compound 24, 4-fluoro-7-nitro-2-(2-oxo-6-thioxopiperidin-3-yl) isoindoline-1,3-dione]","Nitrite, % Change versus Control (± s.e.m.)",[1]; LPS-activated RAW 264.7 cells,4.7 ± 1.0%
same,"TNF-a, % Change versus Control (± s.e.m.)",TNF-α; LPS-activated RAW 264.7 cells,51.3 ± 3.8%
"O=C1c2c(F)ccc(F)c2C(=O)N1C1CC2CCC1C2 (stereo not drawn) [Compound 21, 2-Exo-(bicyclo[2.2.1]heptan-2-yl)-4,7-difluoroisoindoline-1,3-dione]","nitrite level, % of vehicle control",[1]; [2],98 ± 7%
same,"nitrite level, % of vehicle control",[1]; [3],127 ± 2%
same,"nitrite level, % of vehicle control",[1]; [4],83 ± 10%
same,TNF-α % Δ,TNF-α; [2],90 ± 1%
same,TNF-α % Δ,TNF-α; [3],90 ± 1%
"Nc1ccc(F)c2c1C(=O)N(C1CCC(=O)NC1=O)C2=O (centres unmarked) [Compound 26, 4-amino-2-(2,6-dioxopiperidin-3-yl)-7-fluoroisoindoline-1,3-dione]","Nitrite, % Change versus Control (± s.e.m.)",[1]; LPS-activated RAW 264.7 cells,90.3 ± 3.7%
same,"Viability, % Change versus Control (± s.e.m.)",RAW 264.7 cells; LPS-activated RAW 264.7 cells,100.9 ± 1.1%
"Nc1c(F)ccc2c1C(=S)N(C1CCC(=S)NC1=O)C2=O (centres unmarked) [Compound 32, 4-amino-5-fluoro-2-(2-oxo-6-thioxopiperidin-3-yl)-3-thioxoisoindolin-1-one]",nitrite levels (in words),[1],modest efficacy
"O=C1c2c(F)c(F)c(F)c(F)c2C(=O)N1C1CC2CCC1C2 (stereo not drawn) [Compound 15, 2-Exo-(bicyclo[2.2.1]heptan-2-yl)-4,5,6,7-tetrafluoroisoindoline-1,3-dione]",nitrite levels,[1]; [2],25-36%
same,"nitrite level, % of vehicle control",[1]; [2],25 ± 2%
same,nitrite inhibitory activity (comparison in words),[1]; 1 μM,more potent nitrite inhibitory activity; also recorded: slightly more potent than diastereomer 16
same,TNF-α level,TNF-α; [2],55-74%
same,TNF-α % Δ,TNF-α; [2],71 ± 2%
"O=C1c2c(F)ccc(F)c2C(=O)N1C1CC2CCC1C2 (stereo not drawn) [Compound 22, 2-Endo-(bicyclo[2.2.1]heptan-2-yl)-4,7-difluoroisoindoline-1,3-dione]","nitrite level, % of vehicle control",[1]; [2],103 ± 5%
same,"nitrite level, % of vehicle control",[1]; [3],104 ± 2%
same,"nitrite level, % of vehicle control",[1]; [4],50 ± 3%
same,TNF-α % Δ,TNF-α; [2],102 ± 5%
same,TNF-α % Δ,TNF-α; [3],87 ± 5%
Nc1ccc(F)c2c1C(=S)N(C1CCC(=S)NC1=O)C2=O (centres unmarked) [drawing 92],"Nitrite, % Change versus Control (± s.e.m.)",[1]; [5],22 ± 1.7 ( **** ) %
same,"TNF-a, % Change versus Control (± s.e.m.)",TNF-α; [5],109 ± 2.4 (N.S.) %
same,"Viability, % Change versus Control (± s.e.m.)",RAW 264.7 cells; [5],95 ± 3.0 (N.S.) %
"C[C@H]1[C@H](N2C(=O)c3c(F)ccc(F)c3C2=O)C[C@@H]2C[C@H]1C2(C)C [Compound 17, 4,7-Difluoro-2-((1R,2R,3R,5S)-2,6,6-trimethylbicyclo[3.1.1]heptan-3-yl) isoindoline-1,3-dione]","nitrite level, % of vehicle control",[1]; [2],90 ± 5%
same,"nitrite level, % of vehicle control",[1]; [3],54 ± 3%
same,TNF-α % Δ,TNF-α; [2],95 ± 3%
same,TNF-α % Δ,TNF-α; [3],77 ± 3%
same,Cell Viability % Δ,"RAW 264.7 cells; 1 μM, RAW 264.7 cells",100 ± 4%
same,Cell Viability % Δ,"RAW 264.7 cells; 10 μM, RAW 264.7 cells",81 ± 5%
"C[C@H]1[C@H](N2C(=O)c3c(F)c(F)c(F)c(F)c3C2=O)C[C@@H]2C[C@H]1C2(C)C [Compound 11, 4,5,6,7-Tetrafluoro-2-((1R,2R,3R,5S)-2,6,6-trimethylbicyclo[3.1.1]heptan-3-yl) isoindoline-1,3-dione]","nitrite level, % of vehicle control",[1]; [2],48 ± 2%
same,nitrite inhibitory activity (comparison in words),[1]; 1 μM,more potent nitrite inhibitory activity
same,TNF-α % Δ,TNF-α; [2],76 ± 2%
same,Cell Viability % Δ,"RAW 264.7 cells; 1 μM, RAW 264.7 cells",90 ± 4%
"CC1(C)[C@@H]2CC[C@@]1(C)[C@@H](N1C(=O)c3c(F)ccc(F)c3C1=O)C2 [Compound 20, 4,7-Difluoro-2-((1R,2S,4R)-1,7,7-trimethylbicyclo[2.2.1]heptan-2-yl) isoindoline-1,3-dione]","nitrite level, % of vehicle control",[1]; [2],90 ± 2%
same,"nitrite level, % of vehicle control",[1]; [3],78 ± 3%
same,"nitrite level, % of vehicle control",[1]; [4],39 ± 5%
same,inhibition at 30 µM,"[1]; Mus musculus, RAW264.7, 30 μM, LPS-challenged RAW 264.7 cells, read-out: nitrite inhibitory activity",39%
same,TNF-α % Δ,TNF-α; [2],100 ± 2%
same,TNF-α % Δ,TNF-α; [3],98 ± 3%
same,anti-TNF-α activity,TNF-α; [4],76%
same,TNF-α % Δ,TNF-α; [4],76 ± 4%
same,Cell Viability % Δ,"RAW 264.7 cells; 1 μM, RAW 264.7 cells",101 ± 3%
same,Cell Viability % Δ,"RAW 264.7 cells; 10 μM, RAW 264.7 cells",98 ± 4%
same,cell viability,"RAW 264.7 cells; 30 μM, RAW 264.7 cells",96%
same,Cell Viability % Δ,"RAW 264.7 cells; 30 μM, RAW 264.7 cells",96 ± 6%
same,cytotoxicity (in words),"RAW 264.7 cells; RAW 264.7 cells, 1 to 30 μM",the smallest
"Nc1c(F)ccc2c1C(=O)N(C1CCC(=O)NC1=O)C2=O (centres unmarked) [Compound 31, 4-amino-2-(2,6-dioxopiperidin-3-yl)-5-fluoroisoindoline-1,3-dione]",nitrite levels (in words),[1],surpassed by counterparts 3′ and 26
"CC(C)Nc1ccc(F)c2c1C(=O)N(C1CCC(=S)NC1=O)C2=O (centres unmarked) [Compound 27, 4-fluoro-7-(isopropylamino)-2-(2-oxo-6-thioxopiperidin-3-yl) isoindoline-1,3-dione]","Nitrite, % Change versus Control (± s.e.m.)",[1]; LPS-activated RAW 264.7 cells,74.8 ± 1.2%
same,"TNF-a, % Change versus Control (± s.e.m.)",TNF-α; LPS-activated RAW 264.7 cells,94.4 ± 2.8%
same,"Viability, % Change versus Control (± s.e.m.)",RAW 264.7 cells; LPS-activated RAW 264.7 cells,112.3 ± 1.7%
"CC(C)Nc1ccc(F)c2c1C(=O)N(C1CCC(=O)NC1=O)C2=O (centres unmarked) [Compound 25, 2-(2,6-dioxopiperidin-3-yl)-4-fluoro-7-(isopropylamino) isoindoline-1,3-dione]","Nitrite, % Change versus Control (± s.e.m.)",[1]; LPS-activated RAW 264.7 cells,110.1 ± 4.4%
same,"TNF-a, % Change versus Control (± s.e.m.)",TNF-α; LPS-activated RAW 264.7 cells,87.1 ± 3.4%
same,"Viability, % Change versus Control (± s.e.m.)",RAW 264.7 cells; LPS-activated RAW 264.7 cells,99.9 ± 0.4%
"Nc1ccc(F)c2c1C(=O)N(C1CCC(=S)NC1=O)C2=O (centres unmarked) [Compound 29, 4-amino-7-fluoro-2-(2-oxo-6-thioxopiperidin-3-yl) isoindoline-1,3-dione]","Nitrite, % Change versus Control (± s.e.m.)",[1]; LPS-activated RAW 264.7 cells,59.0 ± 1.6%
same,"Viability, % Change versus Control (± s.e.m.)",RAW 264.7 cells; LPS-activated RAW 264.7 cells,112.4 ± 2.9%
